Assay results from patent publication US6855710B2, “Substituted indolines with an inhibitory effect on various kinases and complexes of CDKs” (Boehringer Ingelheim Pharma KG, priority 1998, dated 2005).

| Compound | melting point |
| --- | --- |
| COC(=O)/C=C/c1ccc(/C(Nc2ccc(OC)cc2)=C2/C(=O)Nc3ccc([N+](=O)[O-])cc32)cc1 [Example 435, (Z)-3-{1-(4-methoxyphenylamino)-1-[(E)-4-(2-methoxycarbonylethenyl)-phenyl]-methylidene}-5-nitro-2-indolinone] | 266 to 270 °C |
| O=C1Nc2ccccc2/C1=C(/Nc1ccc(NS(=O)(=O)CCN2CCCCC2)cc1)c1ccccc1 [Example 380, (Z)-3-{1-[4-(2-piperidinoethylsulphonylamino)-phenylamino]-1-phenyl-methylidene}-2-indolinone] | 225 to 227 °C |
| CN(C)CCN(C)S(=O)(=O)c1ccc(N/C(=C2\C(=O)Nc3ccc([N+](=O)[O-])cc32)c2ccccc2)cc1 [Example 402, (Z)-3-{1-[4-(N-(2-dimethylaminoethyl)-N-methyl-aminosulphonyl)-phenylamino]-1-phenyl-methylidene}-5-nitro-2-indolinone] | 215 to 218 °C |
| CC1CCN(CCc2ccc(N/C(=C3\C(=O)Nc4ccc([N+](=O)[O-])cc43)c3ccccc3)cc2)CC1 [Example 259, (Z)-3-{1-[4-(2-(4-methylpiperidino)-ethyl)-phenylamino]-1-phenyl-methylidene}-5-nitro-2-indolinone] | 252 to 253 °C |
| O=C(CN1CCOCC1)Nc1ccc(N/C(=C2\C(=O)Nc3ccccc32)c2ccccc2)cc1 [Example 43, (Z)-3-[1-(4-morpholinomethylcarbonylamino-phenylamino)-1-phenyl-methylidene]-2-indolinone] | 246 to 248 °C |
| Cl.NC(Cc1ccc(N/C(=C2\C(=O)Nc3ccc([N+](=O)[O-])cc32)c2ccccc2)cc1)C(=O)O (centres unmarked) | 225 °C (dec.) |
| COC(=O)C(Cc1ccc(N/C(=C2\C(=O)Nc3ccc([N+](=O)[O-])cc32)c2ccccc2)cc1)NC(=O)OC(C)(C)C (centres unmarked) [Example 225, (Z)-3-{1-[4-(2-tert.butoxycarbonylamino-2-methoxycarbonyl-ethyl)-phenylamino]-1-phenyl-methylidene}-5-nitro-2-indolinone] | 139 °C |
| CC1(O)CCN(Cc2ccc(N/C(=C3\C(=O)Nc4ccc([N+](=O)[O-])cc43)c3ccccc3)cc2)CC1 [Example 251, (Z)-3-{1-[4-(4-hydroxy-4-methyl-piperidinomethyl)-phenylamino]-1-phenyl-methylidene}-5-nitro-2-indolinone] | 186 to 187 °C |
| Br.COCCNCCc1ccc(N/C(=C2\C(=O)Nc3ccc([N+](=O)[O-])cc32)c2ccccc2)cc1 [Example 257, (Z)-3-{1-[4-(2-(2-methoxyethylamino)-ethyl)-phenylamino]-1-phenyl-methylidene}-5-nitro-2-indolinone-hydrobromide] | 297 to 299 °C |
| CN(C)CCCN(C)S(=O)(=O)c1ccc(N/C(=C2\C(=O)Nc3ccc([N+](=O)[O-])cc32)c2ccccc2)cc1 [Example 404, (Z)-3-{1-[4-(N-(3-dimethylaminopropyl)-N-methyl-aminosulphonyl)-phenylamino]-1-phenyl-methylidene}-5-nitro-2-indolinone] | 269 to 270 °C (dec.) |
| CCOC(=O)C1CCN(Cc2ccc(N/C(=C3\C(=O)Nc4ccc([N+](=O)[O-])cc43)c3ccccc3)cc2)CC1 [Example 176, (Z)-3-{1-[4-(4-ethoxycarbonyl-piperidinomethyl)-phenylamino]-1-phenyl-methylidene}-5-nitro-2-indolinone] | 194 °C |
| CN(Cc1ccc(N/C(=C2\C(=O)Nc3ccc([N+](=O)[O-])cc32)c2ccccc2)cc1)C1CCCCC1 [Example 232, (Z)-3-{1-[4-(N-cyclohexyl-N-methyl-aminomethyl)-phenylamino]-1-phenyl-methylidene}-5-nitro-2-indolinone] | 215 °C |
| Cl.NCc1ccc(N/C(=C2\C(=O)Nc3ccc([N+](=O)[O-])cc32)c2ccccc2)cc1 | > 370 °C |
| COC(=O)C(N)Cc1ccc(N/C(=C2\C(=O)Nc3ccc([N+](=O)[O-])cc32)c2ccccc2)cc1.Cl (centres unmarked) | 215 °C (dec.) |
| O=C1Nc2ccc([N+](=O)[O-])cc2/C1=C(/Nc1ccccc1)c1ccc(CN2C(=O)c3ccccc3C2=O)cc1 [Example 153, (Z)-3-[1-phenylamino-1-(4-phthalimidomethyl-phenyl)-methylidene]-5-nitro-2-indolinone] | 334 to 336 °C (dec.) |
| O=C1Nc2ccc([N+](=O)[O-])cc2/C1=C(/Nc1ccc(CCN2CCCCC2)cc1)c1ccccc1 [Example 132, (Z)-3-{1-[4-(2-piperidinoethyl)-phenylamino]-1-phenyl-methylidene}-5-nitro-2-indolinone] | 236 to 237 °C |
| CN(C)Cc1ccc(N/C(=C2\C(=O)Nc3ccccc32)c2cccc(Cl)c2)cc1 [Example 223, (Z)-3-[1-(4-dimethylaminomethyl-phenylamino)-1-(3-chlorophenyl)-methylidene]-2-indolinone] | 197 to 198 °C |

Now from value to molecule:

| melting point | Compound |
| --- | --- |
| 248 to 250 °C | CNC(=N)c1cccc(N/C(=C2\C(=O)Nc3ccccc32)c2ccccc2)c1 [Example 65, (Z)-3-{1-[3-(N-methylcarbamimidoyl)-phenylamino]-1-phenyl-methylidene}-2-indolinone] |
| 213 to 216 °C | CN(C)C(=O)CN(c1cccc(N/C(=C2\C(=O)Nc3ccccc32)c2ccccc2)c1)S(C)(=O)=O [Example 321, (Z)-3-{1-[3-(N-dimethylaminocarbonylmethyl-N-methylsulphonyl-amino)-phenylamino]-1-phenyl-methylidene}-2-indolinone] |
| 275 °C | CS(=O)(=O)Nc1cccc(N/C(=C2\C(=O)Nc3ccccc32)c2ccccc2)c1 [Example 183, (Z)-3-[1-(3-methylsulphonylamino-phenylamino)-1-phenyl-methylidene]-2-indolinone] |
| 237 to 240 °C | CN(C)Cc1ccc(N/C(=C2\C(=O)Nc3ccccc32)c2ccccc2)cc1 [Example 266, (Z)-3-{1-[4-(dimethylaminomethyl)-phenylamino]-1-phenyl-methylidene}-2-indolinone] |
| 237 °C | COc1ccccc1N/C(=C1\C(=O)Nc2ccccc21)c1ccccc1 [Example 4, (Z)-3-[1-(2-methoxy-phenylamino)-1-phenyl-methylidene]-2-indolinone] |
| 241 to 244 °C | COC(=O)c1ccccc1N/C(=C1\C(=O)Nc2ccccc21)c1ccccc1 [Example 7, (Z)-3-[1-(2-methoxycarbonyl-phenylamino)-1-phenyl-methylidene]-2-indolinone] |
| 229 to 232 °C | CCOC(=O)CN(C(=O)CC)c1ccc(N/C(=C2\C(=O)Nc3ccccc32)c2ccccc2)cc1 [Example 356, (Z)-3-{1-[4-(N-ethoxycarbonylmethyl-N-propionyl-amino)-phenylamino]-1-phenyl-methylidene}-2-indolinone] |
| 187 to 189 °C | CC(=O)NCCC(=O)N(C)c1ccc(N/C(=C2\C(=O)Nc3ccccc32)c2ccccc2)cc1 [Example 378, (Z)-3-{1-[4-(N-(2-acetylamino-ethylcarbonyl)-N-methyl-amino)-phenylamino]-1-phenyl-methylidene}-2-indolinone] |
| 246 to 249 °C | COCC(=O)N(CCN(C)C)c1ccc(N/C(=C2\C(=O)Nc3ccccc32)c2ccccc2)cc1 [Example 451, (Z)-3-[1-(4-(N-(2-dimethylaminoethyl)-N-methoxymethylcarbonyl-amino)-phenylamino)-1-phenyl-methylidene]-2-indolinone] |
| 127 to 129 °C | O=C1Nc2ccccc2/C1=C(/Nc1ccc(C(=O)N2CCCC2)cc1)c1ccccc1 [Example 386, (Z)-3-{1-[4-(pyrrolidin-1-ylcarbonyl)-phenylamino]-1-phenyl-methylidene}-2-indolinone] |
| 230 to 235 °C (dec.) | CN(C(=O)CN1CCCCC1)c1ccc(N/C(=C2\C(=O)Nc3ccccc32)c2ccccc2)cc1 [Example 50, (Z)-3-{1-[4-(N-piperidinomethylcarbonyl-N-methyl-amino)-phenylamino]-1-phenyl-methylidene}-2-indolinone] |
| 238 to 240 °C | COCC(=O)Nc1ccc(N/C(=C2\C(=O)Nc3ccccc32)c2ccccc2)cc1 [Example 40, (Z)-3-[1-(4-methoxymethylcarbonylamino-phenylamino)-1-phenyl-methylidene]-2-indolinone] |
| 170 to 172 °C | CCS(=O)(=O)N(CC(=O)N(C)CCN(C)C)c1ccc(N/C(=C2\C(=O)Nc3ccccc32)c2ccccc2)cc1 [Example 302, (Z)-3-{1-[4-(N—((N-(2-dimethylaminoethyl)-N-methyl-amino)-carbonylmethyl)-N-ethylsulphonyl-amino)-phenylamino]-1-phenyl-methylidene}-2-indolinone] |
| 160 to 162 °C | CN(C)C(=O)CN(c1ccc(N/C(=C2\C(=O)Nc3ccc([N+](=O)[O-])cc32)c2ccccc2)cc1)S(=O)(=O)c1ccccc1 [Example 209, (Z)-3-{1-[4-(N-dimethylaminocarbonylmethyl-N-phenylsulphonyl-amino)-phenylamino]-1-phenyl-methylidene}-5-nitro-2-indolinone] |
| 270 °C (dec.) | CS(=O)(=O)N(CC(=O)O)c1cccc(N/C(=C2\C(=O)Nc3ccccc32)c2ccccc2)c1 [Example 318, (Z)-3-{1-[3-(N-carboxymethyl-N-methylsulphonyl-amino)-phenylamino]-1-phenyl-methylidene}-2-indolinone] |
| 197 to 199 °C | COCCN(C)CC(=O)N(C)c1ccc(N/C(=C2\C(=O)Nc3ccccc32)c2ccccc2)cc1 [Example 372, (Z)-3-{1-[4-(N—(N-(2-methoxyethyl)-N-methyl-aminomethylcarbonyl)-N-methyl-amino)-phenylamino]-1-phenyl-methylidene}-2-indolinone] |
| 280 to 282 °C | CC(C)C(=O)N(CCN(C)C)c1ccc(N/C(=C2\C(=O)Nc3ccccc32)c2ccccc2)cc1 [Example 342, (Z)-3-{1-[4-(N-(2-dimethylaminoethyl)-N-isopropylcarbonyl-amino)-phenylamino]-1-phenyl-methylidene}-2-indolinone] |
| 273 to 276 °C | O=C1Nc2ccccc2/C1=C(/Nc1cccc(NC(=O)C(F)(F)F)c1)c1ccccc1 [Example 33, (Z)-3-[1-(3-trifluoroacetylamino-phenylamino)-1-phenyl-methylidene]-2-indolinone] |
